Inconclusive results are not listed.
Biological target: Heat shock protein HSP 90-alpha (Homo sapiens) (UniProt P07900)
Test: human Hsp90 inhibitors in yeast GR reporter, dose response, selectivity assay for Plasmodium Hsp90 inhibitor project, S. cerevisiae, beta-galactosidase luminescence, dry powder (AID 602161)
Settings: S. cerevisiae HsHsp90 GR reporter, beta-gal luminescence

AC50 [µM] | SMILES
2.6 | O=S(=O)(NC1CCCCCC1)c1ccc(Br)s1
9.72 | O=C(CSCC(=O)N1CCCCC1)Nc1nc(-c2ccc(Cl)s2)cs1
12.6 | Cc1ccc(OCc2n[nH]c(=S)n2C2CCCCC2)cc1

The next lines start with the compound.

SMILES | AC50 [µM]
CCOc1cc(S(=O)(=O)NC2CCCCCC2)ccc1F | 22.2
COc1ccc2c(c1)C=C(C(=O)NCc1ccc(Cl)cc1)CO2 | 9.79
O=S(=O)(/C=C/c1ccccc1)NC1CCCCCCC1 | 9.6

Reference: PubChem BioAssay AID602161 (Broad Institute, 2011)
